Publication PMC11589570, “Critical assessment of LC3/GABARAP ligands used for degrader development and ligandability of LC3/GABARAP binding pockets” (Nature Communications, 2024)
Where two headings read alike, the source gives them in different places.

Target: GABARAPL2 (Homo sapiens, UniProt P60520)
Details: GABARAPL2:ligand molar ratio 1:2

Sequence of GABARAPL2 (P60520 whole entry): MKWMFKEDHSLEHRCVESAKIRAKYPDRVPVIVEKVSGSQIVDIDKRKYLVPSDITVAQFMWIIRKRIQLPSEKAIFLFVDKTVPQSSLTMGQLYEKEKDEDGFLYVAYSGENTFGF

Q: What does the source list for `O=C1Nc2ccc(Br)cc2C1=Cc1cc(O)c(O)c(Br)c1` [compound 1]?
A: CSP (residue A19): 0.023 ppm; CSP (residue A23): 0.017 ppm; CSP (residue A58): 0.006 ppm; CSP (residue A75): 0.00152 ppm; CSP (residue A108): 0.001 ppm; CSP (residue C15): 0.010 ppm; CSP (residue D8): 0.011 ppm; CSP (residue D43): 0.002 ppm; CSP (residue D54): 0.011 ppm; CSP (residue D81): 0.00158 ppm; CSP (residue D100): 0.002 ppm; CSP (residue D102): 0.015 ppm; CSP (residue E7): 0.00272 ppm; CSP (residue E12): 0.006 ppm; CSP (residue E17): 0.011 ppm; CSP (residue E34): 0.012 ppm; CSP (residue E96): 0.00425 ppm; CSP (residue E98): 0.005 ppm; CSP (residue E101): 0.005 ppm; CSP (residue F5, estimated): 0.010 ppm; CSP (residue F60): 0.006 ppm; CSP (residue F77): 0.00374 ppm; CSP (residue F104): 0.019 ppm; CSP (residue F115): 0.011 ppm; CSP (residue G38): 0.024 ppm; CSP (residue G103): 0.009 ppm; CSP (residue G111): 0.00641 ppm; CSP (residue H9): 0.012 ppm; CSP (residue H13): 0.004 ppm; CSP (residue I21): 0.013 ppm; CSP (residue I32): 0.024 ppm; CSP (residue I41): 0.011 ppm; CSP (residue I44): 0.005 ppm; CSP (residue I55): 0.003 ppm; CSP (residue I63): 0.00457 ppm; CSP (residue I64): 0.007 ppm; CSP (residue I76): 0.00122 ppm; CSP (residue K2): 0.007 ppm; CSP (residue K6): 0.010 ppm; CSP (residue K20): 0.015 ppm; CSP (residue K24): 0.012 ppm; CSP (residue K35): 0.010 ppm; CSP (residue K46, estimated): 0.005 ppm; CSP (residue K48): 0.050 ppm; CSP (residue K66): 0.004 ppm; CSP (residue K82, estimated): 0.002 ppm; CSP (residue K97): 0.005 ppm; CSP (residue K99): 0.004 ppm; CSP (residue L11): 0.00364 ppm; CSP (residue L50): 0.025 ppm; CSP (residue L94): 0.011 ppm; CSP (residue L105): 0.027 ppm; CSP (residue M1): 0.00659 ppm; CSP (residue M4, estimated): 0.003 ppm; CSP (residue M61): 0.00531 ppm; CSP (residue M91): 0.003 ppm; CSP (residue P26, estimated): 0.020 ppm; CSP (residue P30, estimated): 0.040 ppm; CSP (residue P52, estimated): 0.020 ppm; CSP (residue P71, estimated): 0.002 ppm; CSP (residue P85, estimated): 0.002 ppm; CSP (residue Q40): 0.000721 ppm; CSP (residue Q59): 0.00467 ppm; CSP (residue Q86): 0.003 ppm; CSP (residue R14): 0.018 ppm; CSP (residue R22): 0.020 ppm; CSP (residue R28): 0.016 ppm; CSP (residue R47, estimated): 0.020 ppm; CSP (residue R65): 0.00158 ppm; CSP (residue R67): 0.006 ppm; CSP (residue S10): 0.010 ppm; CSP (residue S18): 0.00255 ppm; CSP (residue S37): 0.048 ppm; CSP (residue S39): 0.003 ppm; CSP (residue S53): 0.014 ppm; CSP (residue S72): 0.00173 ppm; CSP (residue S87): 0.000721 ppm; CSP (residue S88): 0.00152 ppm; CSP (residue S110): 0.00127 ppm; CSP (residue T56): 0.00374 ppm; CSP (residue T90): 0.0011 ppm; CSP (residue V16): 0.014 ppm; CSP (residue V29): 0.043 ppm; CSP (residue V31): 0.038 ppm; CSP (residue V33): 0.013 ppm; CSP (residue V42): 0.00279 ppm; CSP (residue V51): 0.046 ppm; CSP (residue V57): 0.004 ppm; CSP (residue V80): 0.008 ppm; CSP (residue V84): 0.00263 ppm; CSP (residue V107): 0.006 ppm; CSP (residue W62): 0.015 ppm; CSP (residue Y25): 0.034 ppm; CSP (residue Y49): 0.064 ppm; CSP (residue Y106): 0.023 ppm; CSP (residue Y109): 0.009 ppm
